From patent publication US20240409501A1, “CYRSTALLINE FORMS OF RIP1 INHIBITOR” (SIRONAX LTD., priority 2021, published 2024)
≈ marks a conversion by molar mass, not a printed value. Entries after “also recorded” stand apart in the source; their conditions may differ.

Experiments:
Format in all cases: physicochemical
[1] = Form conversion of Type C on vacuum drying (XRPD); conditions: vacuum dried at 50° C.
Excerpt: Type C of N-(3,5-difluorobenzyl)-N-hydroxy-2,2-dimethylbutanamide (817506-10-A10) was obtained via liquid vapor diffusion of a DMSO solution of a starting material (817506-01-A) in H2O atmosphere.

[2] = Equilibrium solubility of Type A in H2O at RT
Experimental: Equilibrium solubility of Type A in H2O was measured at RT. Specifically, 10.0 mg of a Type A sample (817506-48-A2) was suspended into 1 mL of H2O (˜1000 rpm) at RT. After 24 hrs, the suspension was centrifuged (10000 rpm, 5 min, RT) followed by filtration (0.45 μm PTFE membrane). The supernatant (first few drops were discarded) was analyzed for HPLC solubility and pH, and the residual solids were used for XRPD analysis.
(§1) An Agilent 1290 UPLC with DAD detector and Agilent 1260 HPLC with VWD detector were use and detailed chromatographic conditions for purity and solubility analysis are listed in Table 42 and Table 43.

[3] = Solid state stability (XRPD, DSC, HPLC after storage); conditions: for % of Initial: HPLC purity
Experimental: To evaluate the solid state stability, a Type A sample (817506-48-A2) was stored under 80° C. for one day, and 25° C./60% RH and 40° C./75% RH for one week each. […] DSC characterization results were shown from FIG. 35 to FIG. 37. Only one endotherm at about 95° C. was observed, indicating the solids under all the conditions were pure Type A.
as §1

[4] = Photo stability under white light and ultraviolet (ICH guideline)
Experimental: Photo stability of Type A (817506-48-A2) was assessed under both white light (1,200,000 Lux-hrs) and ultraviolet (200 W·hrs/m^2) conditions according to the ICH guideline. […] Only an endotherm at about 95° C. was observed on the DSC curves (FIGS. 42-43).

[5] = Hygroscopicity, DVS isotherm at 25° C. between 0 and 95% RH
Experimental: To investigate the solid from stability as a function of humidity, a DVS isotherm plot of Type A (817506-48-A2) was collected at 25° C. between 0 and 95% RH. […] (onset) after the DVS test.
DVS was measured Via an SMS (Surface Measurement Systems) DVS Intrinsic. The relative humidity at 25° C. was calibrated against deliquescence point of LiCl. Mg(NO3)2 and KCl.

[6] = Approximate solubility in 20 solvent systems at RT
Experimental: Approximate solubility of N-(3,5-difluorobenzyl)-N-hydroxy-2,2-dimethylbutanamide (817506-01-A) was measured in 20 solvent systems at RT. Approximately 2 mg of the sample was added into a 3-mL glass vial. Solvents as shown in Table 36 were then added stepwise (50/50/200/700/1000 μL) into the vials until the solids were dissolved visually or a total volume of 2 mL was reached. Solubility results summarized in Table 36 were used to guide the solvent selection in preparing the solid forms as disclosed herein.

[7] = White light (1,200,000 Lux-hrs)

For `CCC(C)(C)C(=O)N(O)Cc1cc(F)cc(F)c1` [Type C, N-(3,5-difluorobenzyl)-N-hydroxy-2,2-dimethylbutanamide], the form after drying [1] was “converted to Type A”.

In the case of `CCC(C)(C)C(=O)N(O)Cc1cc(F)cc(F)c1` [Type A, N-(3,5-difluorobenzyl)-N-hydroxy-2,2-dimethylbutanamide], the Form change ([2]; after suspending in H2O at RT for about 24 hrs, XRPD of residual solids) is reported as “no crystalline type change and no form change and No”, the pH ([2]; supernatant after suspension in H2O at RT for 24 hrs) is reported as 8.7 and the solubility at 24 h ([2]; water, thermodynamic from solid, equilibrium solubility in H2O, RT, 24 hrs, HPLC) is reported as ~0.15 mg/mL (≈ 0.583 mM). The “Final Form” value ([3]; 25° C./60% RH/1 w) was “Type A”, the “% of Initial” value ([3]; 25° C./60% RH/1 w) was 100.0% and the “Final Form” value ([3]; 40° C./75% RH/1 w) was “Type A”. For the same molecule, the “% of Initial” value ([3]; 40° C./75% RH/1 w) was 100.0%, the “Final Form” value ([3]; 80° C./1 d) was “Type A” and the “% of Initial” value ([3]; 80° C./1 d) was 100.0%. For the same molecule, the “form change or decrease in purity” value ([3]; all conditions: 80° C. one day, 25° C./60% RH and 40° C./75% RH one week each) was “No crystalline form change or HPLC purity decrease; also recorded: No form change or decrease in purity”, the Form ([4]; UV (200 W·hrs/m^2)) was “Type A” and the “Purity (area %)” value ([4]; UV (200 W·hrs/m^2)) was 100.0 area %. The Form [4, 7] was “Type A”, the “Purity (area %)” value [4, 7] was 100.0 area % and the “form change after photo stability evaluation” value ([4]; both white light and ultraviolet, XRPD and DSC) was “No crystalline form change or HPLC purity decrease; also recorded: no form change”. The “purity decrease after photo stability evaluation” value ([4]; white light and ultraviolet, HPLC) was “no purity decrease”, the water uptake (DVS plot) ([5]; 25° C./80VRH) was 0.1% and the “water uptake (DVS)” value ([5]; 80% RH/25° C.) was “about 0.10%”. For the same molecule, the hygroscopicity ([5]; DVS at 25° C.) was “non-hygroscopic” and the “form change after the DVS test” value ([5]; XRPD before and after DVS) was “no form change”.

For `CCC(C)(C)C(=O)N(O)Cc1cc(F)cc(F)c1` [N-(3,5-difluorobenzyl)-N-hydroxy-2,2-dimethylbutanamide], the solubility ([6]; organic solvent or mixture, thermodynamic from solid, 1,4-Dioxane, RT) was > 46 mg/mL, the solubility ([6]; organic solvent or mixture, thermodynamic from solid, 2-MeTHF, RT) was 2.2 to 7.3 mg/mL (≈ 8.55 to 28.4 mM) and the solubility ([6]; organic solvent or mixture, thermodynamic from solid, ACN, RT) was > 50 mg/mL. The solubility ([6]; organic solvent or mixture, thermodynamic from solid, Acetone, RT) was > 46 mg/mL, the solubility ([6]; organic solvent or mixture, thermodynamic from solid, CHCl3, RT) was > 50 mg/mL and the solubility ([6]; organic solvent or mixture, thermodynamic from solid, DCM, RT) was > 50 mg/mL. The solubility ([6]; organic solvent or mixture, thermodynamic from solid, DMAc, RT) was 21 to 42 mg/mL (≈ 81.6 to 163 mM), the solubility ([6]; organic solvent or mixture, thermodynamic from solid, DMSO, RT) was > 42 mg/mL and the solubility ([6]; organic solvent or mixture, thermodynamic from solid, EtOAc, RT) was > 44 mg/mL. The solubility ([6]; organic solvent or mixture, thermodynamic from solid, EtOH, RT) was > 40 mg/mL, the solubility ([6]; organic solvent or mixture, thermodynamic from solid, IPA, RT) was > 42 mg/mL and the solubility ([6]; organic solvent or mixture, thermodynamic from solid, IPAC, RT) was > 50 mg/mL. The solubility ([6]; organic solvent or mixture, thermodynamic from solid, MIBK, RT) was > 50 mg/mL, the solubility ([6]; organic solvent or mixture, thermodynamic from solid, MTBE, RT) was 2.3 to 7.7 mg/mL (≈ 8.94 to 29.9 mM) and the solubility ([6]; organic solvent or mixture, thermodynamic from solid, MeOH, RT) was > 46 mg/mL. The solubility ([6]; organic solvent or mixture, thermodynamic from solid, NMP, RT) was 2.4 to 48 mg/mL (≈ 9.33 to 187 mM), the solubility ([6]; organic solvent or mixture, thermodynamic from solid, THF, RT) was 25 to 50 mg/mL (≈ 97.2 to 194 mM) and the solubility ([6]; organic solvent or mixture, thermodynamic from solid, Toluene, RT) was 20 to 40 mg/mL (≈ 77.7 to 155 mM). For the same molecule, the solubility ([6]; organic solvent or mixture, thermodynamic from solid, n-Heptane, RT) was < 1 mg/mL and the solubility ([6]; water, thermodynamic from solid, H2O, RT) was < 1.3 mg/mL.
